These results are taken from US6593326B1, “2,4-diamino pyrimidine compounds having anti-cell proliferative activity” (AstraZeneca AB, priority 1998, dated 2003).

Each structure is given as a SMILES string.

One experiment addresses T1, CDK4/Cyclin D1 (Homo sapiens, UniProt P11802).
T1 construct: made in house; host or cells: Sf21 insect cells (baculovirus co-infection, pVL1393); the substrate was made in E. coli BL21 (DE3) pLysS
Kind of experiment: CDK4 Inhibition Assay (Scintillation Proximity Assay, GST-Retinoblastoma substrate). Format: biochemical. Conditions: in vitro kinase assay; read-out: CDK4 inhibitory activity IC50. On the procedure: The compounds were tested in an in vitro kinase assay in 96 well format using Scintillation Proximity Assay (SPA-obtained from Amersham) for measuring incorporation of [γ-33-P]-Adenosine Triphosphate into a test substrate (GST-Retinoblastoma). In each well was placed the compound to be tested (diluted in DMSO and water to correct concentrations) and in control wells either p16 as an inhibitor control or DMSO as a positive control.
Approximately 0.5 μl of CDK4/Cyclin D1 partially-purified enzyme (amount dependent on enzyme activity) diluted in 25 μl incubation buffer was added to each well then 20 μl of GST-Rb/ATP/ATP33 mixture (containing 0.5 μg GST-Rb and 0.2 μM ATP and 0.14 μCi [γ-33-P]-Adenosine Triphosphate), and the resulting mixture shaken gently, then incubated at room temperature for 60 minutes. […]
The plates were sealed with Topseal-S plate sealers, left for two hours then spun at 2500 rpm, 1124×g., for 5 minutes. The plates were read on a Topcount for 30 seconds per well. […]
E.coli paste was resuspended in 10 ml/g of NETN buffer (50 mM Tris pH 7.5, 120 mM NaCl, 1 mM EDTA, 0.5% v/v NP-40, 1 mM PMSF, 1 ug/ml leupeptin, 1 ug/ml aprotinin and 1 ug/ml pepstatin) and sonicated for 2×45 seconds per 100 ml homogenate. […] The final product was analysed by Sodium Dodeca Sulfate (SDS) PAGE (Polyacrylamide gel) using 8-16% Tris-Glycine gels (Novex, San Diego, USA). […]
Background: SPA uses beads or plates that emit light when radiolabelled molecules are held near them.

Experiment [1] has as its target T2, human Focal Adhesion Kinase (FAK) (Homo sapiens, UniProt Q05397).
T2 construct: FAK (full length human cDNA described by Andre et al); made in house; host or cells: Sf21 insect cells (baculovirus, pFastbac 1)
Nature of the experiment: FAK3 Kinase Inhibition Assay. The settings on record: in vitro enzyme assay; read-out: FAK inhibitory activity IC50. Format: biochemical. The text has this:
FAK3 Kinase Inhibition Assay
This assay determines the ability of a test compound to inhibit tyrosine kinase activity of human Focal Adhesion Kinase (FAK).
DNA encoding FAK is obtained by total gene synthesis (Edwards M, International Biotechnology Lab 5(3), 19-25, 1987) or by cloning. These are then expressed in a suitable expression system to obtain polypeptide with tyrosine kinase activity.
Active FAK protein has been previously expressed in a baculovirus system using a similar N-terminal 6-histidine tag (Protein Expression And Purification, 1996, 7: 12-18). The human FAK cDNA was cloned into the baculovirus transplacement vector, pFastbac 1 (Life Technologies), and the recombinant construct was co-transfected into insect cells (for example Spodoptera frugiperda 21(Sf21)) with viral DNA to prepare recombinant baculovirus (details of the methods for the assembly of recombinant DNA molecules and the preparation and use of recombinant baculovirus can be found in standard texts for example Sambrook et al, 1989, Molecular cloning—A Laboratory Manual, 2nd edition, Cold Spring Harbour Laboratory Press and O'Reilly et al, 1992, Baculovirus Expression Vectors—A Laboratory Manual, W. H. Freeman and Co, New York. Details specific to the use of the pFastbac (‘Bac to Bac’) system are provided in Anderson et al., 1995, FOCUS (Life Technologies Bulletin Magazine), 17, p53.) […]

T1 sequence (P11802 whole entry): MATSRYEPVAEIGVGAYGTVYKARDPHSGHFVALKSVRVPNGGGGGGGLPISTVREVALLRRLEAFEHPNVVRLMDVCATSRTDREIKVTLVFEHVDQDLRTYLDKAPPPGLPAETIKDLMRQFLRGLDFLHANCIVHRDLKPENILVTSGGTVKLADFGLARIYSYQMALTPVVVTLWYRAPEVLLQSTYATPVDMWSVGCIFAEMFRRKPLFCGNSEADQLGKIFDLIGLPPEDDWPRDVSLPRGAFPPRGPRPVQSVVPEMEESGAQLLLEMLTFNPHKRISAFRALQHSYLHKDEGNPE
T1 sequence (P24385 whole entry partner): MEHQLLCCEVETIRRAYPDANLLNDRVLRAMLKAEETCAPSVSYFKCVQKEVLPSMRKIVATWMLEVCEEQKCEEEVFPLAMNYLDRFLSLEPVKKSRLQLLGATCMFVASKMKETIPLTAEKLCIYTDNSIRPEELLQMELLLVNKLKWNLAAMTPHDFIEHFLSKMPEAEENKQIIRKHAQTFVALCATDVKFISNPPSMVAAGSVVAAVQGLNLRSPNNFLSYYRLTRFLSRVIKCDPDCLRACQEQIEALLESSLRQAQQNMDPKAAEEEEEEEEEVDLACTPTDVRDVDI
T2 sequence (Q05397 whole entry): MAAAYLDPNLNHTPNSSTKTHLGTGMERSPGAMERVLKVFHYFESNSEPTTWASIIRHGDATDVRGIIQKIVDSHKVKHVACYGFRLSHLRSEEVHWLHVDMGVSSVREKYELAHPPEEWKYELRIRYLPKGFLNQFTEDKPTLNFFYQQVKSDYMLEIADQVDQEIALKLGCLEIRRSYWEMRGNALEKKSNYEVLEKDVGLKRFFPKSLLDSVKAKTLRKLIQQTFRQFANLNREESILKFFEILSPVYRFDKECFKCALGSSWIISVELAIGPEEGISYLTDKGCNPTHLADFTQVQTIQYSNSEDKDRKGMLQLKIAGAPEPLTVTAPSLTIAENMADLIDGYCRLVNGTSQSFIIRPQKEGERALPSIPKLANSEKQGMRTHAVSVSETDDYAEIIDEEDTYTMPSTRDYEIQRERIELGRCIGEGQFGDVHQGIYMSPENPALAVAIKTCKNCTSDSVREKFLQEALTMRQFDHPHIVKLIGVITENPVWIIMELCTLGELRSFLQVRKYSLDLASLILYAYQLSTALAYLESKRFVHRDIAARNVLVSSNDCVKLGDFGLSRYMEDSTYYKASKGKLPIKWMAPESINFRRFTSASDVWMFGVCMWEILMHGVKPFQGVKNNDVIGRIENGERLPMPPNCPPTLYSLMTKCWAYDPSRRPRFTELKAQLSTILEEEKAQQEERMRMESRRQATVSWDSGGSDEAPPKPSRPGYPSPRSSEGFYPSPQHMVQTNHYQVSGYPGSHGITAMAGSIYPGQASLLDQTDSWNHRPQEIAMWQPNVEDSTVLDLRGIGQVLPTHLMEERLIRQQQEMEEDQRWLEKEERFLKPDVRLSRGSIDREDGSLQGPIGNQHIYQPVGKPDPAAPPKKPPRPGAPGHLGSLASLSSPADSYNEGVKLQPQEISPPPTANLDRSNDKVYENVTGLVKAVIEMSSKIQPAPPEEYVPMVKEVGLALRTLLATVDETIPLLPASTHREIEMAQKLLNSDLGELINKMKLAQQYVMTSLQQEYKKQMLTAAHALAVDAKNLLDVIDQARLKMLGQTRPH

Consider `Cc1ccc(F)c(Nc2nc(Nc3ccc(OCC(O)CN(C)C)cc3)ncc2Br)c1` (stereo not shown) [Example 5, 2-{4-[3-(N,N-Dimethyl)amino-2-hydroxy-propoxy]anilino}-4-(2-fluoro-5-methylanilino)-5-bromo-pyrimidine], for which the IC50 (in general, the concentration that inhibits the measured activity by half) at CDK4/Cyclin D1 was determined as 20 nM.

Take `CN(C)CC(O)COc1ccc(Nc2ncc([N+](=O)[O-])c(Nc3ccccc3F)n2)cc1` (stereo not shown) [Example 6]: in experiment [1], the IC50 is 32 nM. Take `CN(C)CC(O)COc1ccc(Nc2ncc(Br)c(Nc3ccccc3)n2)cc1` (racemic) [Example 3, 4-anilino-5-bromo-2-{4-[3-(N,N-dimethyl)amino-2-hydroxypropoxy]anilino}pyrimidine]: on CDK4/Cyclin D1, the IC50 was 70 nM.

On to `CC(C)NCCCNc1ccc(Nc2ncc(Br)c(Nc3ccccn3)n2)cc1` [Example 220], for which the IC50 in experiment [1] worked out at 70 nM.
